In US12492173B2, “Herbicidal substituted N-tetrazolyl aryl carboxamides” (Bayer Aktiengesellschaft, priority 2019, dated 2025):

Assays:
Assay type in all cases: in vivo
Alopecurus myosuroides = assay: Post-emergence herbicidal action, ALOMY; set-up: key: % herbicidal action vs untreated; 100 = plants died, 0 = like control; conditions: for Herbicidal action against ALOMY: comparative experiment
In short: (§1)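 Percent herbicidal effect was rated visually about 3 weeks after treatment, relative to untreated plants (0% = like control, 100% = dead). Compounds, formulated as WP or EC, went on as aqueous spray (600–800 l/ha, 0.2% wetting agent) to one-leaf-stage plants 2–3 weeks post-sowing in sandy loam.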

Veronica persica = assay: Post-emergence herbicidal action, VERPE; set-up: key: % herbicidal action vs untreated; 100 = plants died, 0 = like control; conditions: for Herbicidal action against VERPE: comparative experiment, 20 g of a.i./ha
In short: as §1

Pharbitis purpurea = assay: Post-emergence herbicidal action, PHBPU
In short: as §1

Amaranthus retroflexus = assay: Post-emergence herbicidal action, AMARE; set-up: key: % herbicidal action vs untreated; 100 = plants died, 0 = like control; conditions: for Herbicidal action against AMARE: comparative experiment
In short: as §1

Viola tricolor = assay: Pre-emergence herbicidal action, VIOTR; set-up: key to Herbicidal action against VIOTR: % activity: 100 = plants have died, 0 = like control plants; conditions: for herbicidal activity VIOTR / herbicidal action VIOTR: dosage 320 g/ha; for herbicidal activity VIOTR: scored visually after 3 weeks vs untreated controls (100% = plants have died)
In short: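 Sown pots (sandy loam) sprayed pre-emergence → greenhouse → visual rating at 3 weeks; % activity vs untreated control, 100% = dead.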

Abutilon theophrasti = assay: Post-emergence herbicidal action, ABUTH; set-up: key: % herbicidal action vs untreated; 100 = plants died, 0 = like control
In short: as §1

[1] = post-emergence, 20 g of a.i./ha
[2] = comparative experiment, post-emergence, 20 g of a.i./ha

Structure (SMILES)	herbicidal action ALOMY (Alopecurus myosuroides; post-emergence, dosage 80 g/ha) [%]	herbicidal action VERPE (Veronica persica; post-emergence, dosage 80 g/ha) [%]	herbicidal action PHBPU (Pharbitis purpurea; post-emergence, dosage 80 g/ha) [%]	herbicidal action AMARE (Amaranthus retroflexus; post-emergence, dosage 80 g/ha) [%]	herbicidal activity VIOTR (Viola tricolor) [%]	herbicidal action ABUTH (Abutilon theophrasti; post-emergence, dosage 80 g/ha) [%]	herbicidal action ALOMY (Alopecurus myosuroides; Dosage 80 g/ha)	herbicidal action VERPE (Veronica persica; Dosage 80 g/ha)	herbicidal action PHBPU (Pharbitis purpurea; Dosage 80 g/ha)	herbicidal action AMARE (Amaranthus retroflexus; Dosage 80 g/ha)	herbicidal action ABUTH (Abutilon theophrasti; Dosage 80 g/ha)	other results
Cn1nnnc1NC(=O)c1ccc(C(F)F)c(CS(C)(=O)=O)c1Cl [Example 1-322]	90	100	80	80	100	100	–	–	–	–	–	–
CCSCc1c(C(F)F)ccc(C(=O)Nc2nnnn2C)c1Cl [Example 1-323]	90	100	100	90	100	100	–	–	–	–	–	–
CSCc1c(I)ccc(C(=O)Nc2nnnn2C)c1Cl [Example 1-362]	90	100	100	100	100	100	–	–	–	–	–	Herbicidal action against ALOMY (Alopecurus myosuroides; post-emergence, 5 g of a.i./ha): 70; Herbicidal action against AMARE (Amaranthus retroflexus; post-emergence, 5 g of a.i./ha): 100
CCSCc1c(C(F)(F)F)ccc(C(=O)Nc2nnnn2C)c1Br [Example 1-383]	100	100	90	90	100	100	–	–	–	–	–	Herbicidal action against ALOMY (Alopecurus myosuroides; [1]): 80; Herbicidal action against VERPE (Veronica persica; post-emergence): 100; Herbicidal action against VIOTR (Viola tricolor; comparative experiment, 80 g of a.i./ha): 100; Herbicidal action against ABUTH (Abutilon theophrasti; [2]): 90
CCS(=O)(=O)Cc1c(C(F)(F)F)ccc(C(=O)Nc2nnnn2C)c1Br [Example 1-385]	90	100	90	90	100	100	–	–	–	–	–	Herbicidal action against ALOMY (Alopecurus myosuroides; [1]): 80; Herbicidal action against VERPE (Veronica persica; post-emergence): 100; Herbicidal action against PHBPU (Pharbitis purpurea; [2]): 80; Herbicidal action against AMARE (Amaranthus retroflexus; [1]): 90
CSCc1c(Cl)ccc(C(=O)Nc2nnnn2C)c1Cl [Example 1-559]	90	100	100	100	–	90	–	–	–	–	–	herbicidal action VIOTR (Viola tricolor): 100%
CCSCc1c(C(F)(F)F)ccc(C(=O)Nc2nnnn2CC)c1C [Example 2-86]	90	90	90	80	–	80	–	–	–	–	–	herbicidal action VIOTR (Viola tricolor): 100%
CCn1nnnc1NC(=O)c1ccc(C(F)(F)F)c(CS(=O)(=O)CC)c1C [Example 2-88]	–	–	–	–	–	–	90	100	90	90	80	herbicidal action VIOTR (Viola tricolor): 100%
CCn1nnnc1NC(=O)c1ccc(C(F)F)c(C[S+](C)[O-])c1C (stereo not shown) [Example 2-108]	–	–	–	–	–	–	80	100	100	100	100	herbicidal action VIOTR (Viola tricolor): 100%
CCn1nnnc1NC(=O)c1ccc(C(F)(F)F)c(C[S+](C)[O-])c1SC (stereo not shown) [Example 2-162]	–	–	–	–	100	–	90	90	90	90	100	–
CCn1nnnc1NC(=O)c1ccc(C(F)F)c(CSC)c1SC [Example 2-170]	–	–	–	–	100	–	80	90	90	100	100	–
CCn1nnnc1NC(=O)c1ccc(C(F)(F)F)c(CSC)c1Cl [Example 2-296]	100	100	90	100	100	100	–	–	–	–	–	–
CCn1nnnc1NC(=O)c1ccc(C(F)(F)F)c(C[S+](C)[O-])c1Cl (stereo not shown) [Example 2-297]	100	100	100	100	100	80	–	–	–	–	–	–
CCn1nnnc1NC(=O)c1ccc(C(F)(F)F)c(CS(C)(=O)=O)c1Cl [Example 2-298]	–	–	–	–	100	–	80	100	90	90	80	–
